System: HSV-2 (strain HG-52)
Assay: Inhibition of HSV-2 replication in BHK-21/C13 cell culture (viral titer by neutral red colorimetric assay)
Format: cell-based
Details: Human alphaherpesvirus 2, BHK21 (C13); agent alone; HSV-2 strain HG-52 in BHK-21/C13 cells, 29 h incubation; read-out: IC50 (concentration causing 50% inhibition of virus replication)
Description: BHK-21/C13 cells (ATCC CCL 10) are incubated for two days in 150 cm^2 T-flasks (1.5×10^6 cells/flask) with alpha-MEM medium (Gibco Canada Inc., Burlington, Ontario, Canada) supplemented with 8% (v/v) fetal bovine serum (FBS, Gibco Canada Inc.). The cells are trypsinized and then transferred to fresh media in a 24 well plate to give 2.5×10^5 cells in 750 μL of media per well. The cells are incubated at 37° C. for a period of 6 hours to allow them to adhere to the plate. Thereafter, the cells are washed once with 500 μL of alpha-MEM supplemented with 0.5% (v/v) FBS and then incubated with 750 μL of the same media (low serum) for 3 days. After this period of serum starvation, the low serum medium is removed and the cells are incubated in 500 μL of BBMT for 2 to 3 hours. [BBMT medium is described by P. Brazeau et al., Proc. Natl. Acad. Sci. USA, 79, 7909 (1982).] Thereafter, the cells are infected with HSV-2 (multiplicity of infection=0.02 PFU/cell) in 100 μL of BBMT medium. […]
On completion of the above 2 hour incubation of the BHK-21/C13 cells, the media is replaced with alpha-MEM medium supplemented with 3% (v/v) FBS. The cells are now ready to be infected with the various sample dilutions of virus. […]

Nc1nc2c(ncn2COCCO)c(=O)[nH]1 [acyclovir, 9-[(2-hydroxyethoxy)methyl]guanine]
IC50: 4 µM

Source: US5380727A, “Synergistic combination for treating herpes infections” (Bio-Mega, Inc., priority 1990, dated 1995)
